From PMC8604237 (Clinical and Translational Science, 2021)

How the values were obtained:
[1] = Population PK analysis of teduglutide; assay type: in vivo, human
[2] = test system: patients with SBS; assay: Time- and exposure-response analysis of prescribed PS; assay type: in vivo, human; settings: for percent change from baseline of prescribed PS volume (maximum) / percent change from baseline of PS volume (maximum): 0.05 mg/kg
[3] = cited from earlier work
[4] = test system: patients with SBS; settings: cited from earlier work
[5] = single dose, non-Japanese adults; cited from earlier work
[6] = single and repeated doses up to 20 mg

With CC[C@H](C)[C@H](NC(=O)[C@H](Cc1ccccc1)NC(=O)[C@H](CC(=O)O)NC(=O)[C@H](CCCNC(=N)N)NC(=O)[C@H](C)NC(=O)[C@H](C)NC(=O)[C@H](CC(C)C)NC(=O)[C@H](CC(N)=O)NC(=O)[C@H](CC(=O)O)NC(=O)[C@H](CC(C)C)NC(=O)[C@@H](NC(=O)[C@@H](NC(=O)[C@H](CC(N)=O)NC(=O)[C@H](CCSC)NC(=O)[C@H](CCC(=O)O)NC(=O)[C@H](CC(=O)O)NC(=O)[C@H](CO)NC(=O)[C@H](Cc1ccccc1)NC(=O)[C@H](CO)NC(=O)CNC(=O)[C@H](CC(=O)O)NC(=O)CNC(=O)[C@@H](N)Cc1c[nH]cn1)[C@@H](C)O)[C@@H](C)CC)C(=O)N[C@@H](CC(N)=O)C(=O)N[C@@H](Cc1c[nH]c2ccccc12)C(=O)N[C@@H](CC(C)C)C(=O)N[C@H](C(=O)N[C@@H](CCC(N)=O)C(=O)N[C@H](C(=O)N[C@@H](CCCCN)C(=O)N[C@H](C(=O)N[C@H](C(=O)N[C@@H](CC(=O)O)C(=O)O)[C@@H](C)O)[C@@H](C)CC)[C@@H](C)O)[C@@H](C)CC [teduglutide] the “impact of race (Japanese vs. non-Japanese) on CL/F” value ([1]; covariate analysis) was “did not have an impact”, the “impact of race (Japanese vs. non-Japanese) on K a” value ([1]; covariate analysis) was “did not have an impact” and the “impact of race (Japanese vs. non-Japanese) on V/F” value ([1]; covariate analysis) was “did not have an impact”. The “CL/F in female subjects, lower relative to male subjects” value ([1]; final PopPK model) was 7%, the “V/F of typical subject of 0.38 years relative to typical subject of 34 years” value ([1]; final PopPK model) was “fourfold higher” and the absorption lag time ([1]; final PopPK model, corresponds to 0.299 h) was 17.9 min. The “time of peak concentrations after dosing” value ([1]; observed individual concentrations, adult and pediatric patients with SBS, s.c.) was 3 to 5 h, the “terminal elimination half-life (t 1/2), population estimate” value ([1]; patients with SBS, final PopPK model) was 1.47 h and the “mean C max,ss in Japanese adult patients, higher than in non-Japanese adult patients” value ([1]; s.c. 0.05 mg/kg, SBS) was 23%. The “mean C max,ss in Japanese pediatric patients, difference from non-Japanese pediatric patients” value ([1]; s.c. 0.05 mg/kg, SBS) was ≤ 20%, the “time to total absorption after dosing” value ([1]; suggested by K a 0.330 h^−1 and lag time 17.9 min) was ~10 h and the “percent change from baseline of prescribed PS volume (maximum)” value ([2]; Japanese pediatric patients with SBS) was −29.7%. For the same molecule, the “percent change from baseline of PS volume (maximum)” value ([2]; adult Japanese patients with SBS) was −62.6%, the “percent change from baseline of PS volume (maximum)” value ([2]; adult non-Japanese patients with SBS) was −54.9% and the “percent change from baseline of prescribed PS volume (maximum)” value ([2]; non-Japanese pediatric patients with SBS) was −74.7%. For the same molecule, the “maximum reduction in PS” value ([2]; daily dosing of 0.05 mg/kg) was 5.76 L/week, the “E max of teduglutide on prescribed PS volume” value ([2]; final time- and exposure-response model, change from baseline in prescribed PS volume) was −5.76 L/week and the terminal elimination half-life [3] was ~ 2 h. For the same molecule, the “time of maximum plasma levels after dosing” value ([3]; s.c. injection) was 3 to 5 h, the accumulation [3, 6] was “no accumulation” and the “rate and extent of absorption vs dose” value [3, 6] was “dose‐proportional”. For the same molecule, the “incidence of adverse events leading to discontinuation of treatment” value ([4]; 0.05 mg/kg, adult patients with SBS, 24-week study) was “less than 5%”, the “responder rate (≥20% reduction from baseline in the volume of PS)” value ([4]; daily s.c. 0.05 mg/kg, patients with SBS, vs. 30% placebo, p = 0.002) was 63% and the “AUCinf in individuals with ESRD vs healthy volunteers” value [5] was “more than twofold higher”. The “C max in individuals with ESRD vs healthy volunteers” value [5] was “more than twofold higher”.
